From ChEMBL document CHEMBL4325916, “Isoform selective PLD inhibition by novel, chiral 2,8-diazaspiro[4.5]decan-1-one derivatives” (Bioorg Med Chem Lett, 2018)

Legend:
[1] = Fraction unbound in rat plasma; format: ADME, cell-free
[2] = […] clearance in rat at […], iv administered as cassette dose; format: ADME, organism-based; conditions: in vivo
[3] = Half life in rat at […], iv administered as cassette dose; format: ADME, organism-based; conditions: in vivo
[4] = Fraction unbound in rat brain; format: ADME, tissue-based
[5] = Fraction unbound in human plasma; format: ADME, cell-free
[6] = Volume of distribution at steady state in rat at […], iv administered as cassette dose; format: ADME, organism-based; conditions: in vivo, read-out: Vdss
[7] = target: T1, Phospholipase D1 (Homo sapiens, UniProt Q13393); test: Inhibition of PLD1 in human Calu1 cells; format: cell-based
T1 sequence (Q13393 whole entry): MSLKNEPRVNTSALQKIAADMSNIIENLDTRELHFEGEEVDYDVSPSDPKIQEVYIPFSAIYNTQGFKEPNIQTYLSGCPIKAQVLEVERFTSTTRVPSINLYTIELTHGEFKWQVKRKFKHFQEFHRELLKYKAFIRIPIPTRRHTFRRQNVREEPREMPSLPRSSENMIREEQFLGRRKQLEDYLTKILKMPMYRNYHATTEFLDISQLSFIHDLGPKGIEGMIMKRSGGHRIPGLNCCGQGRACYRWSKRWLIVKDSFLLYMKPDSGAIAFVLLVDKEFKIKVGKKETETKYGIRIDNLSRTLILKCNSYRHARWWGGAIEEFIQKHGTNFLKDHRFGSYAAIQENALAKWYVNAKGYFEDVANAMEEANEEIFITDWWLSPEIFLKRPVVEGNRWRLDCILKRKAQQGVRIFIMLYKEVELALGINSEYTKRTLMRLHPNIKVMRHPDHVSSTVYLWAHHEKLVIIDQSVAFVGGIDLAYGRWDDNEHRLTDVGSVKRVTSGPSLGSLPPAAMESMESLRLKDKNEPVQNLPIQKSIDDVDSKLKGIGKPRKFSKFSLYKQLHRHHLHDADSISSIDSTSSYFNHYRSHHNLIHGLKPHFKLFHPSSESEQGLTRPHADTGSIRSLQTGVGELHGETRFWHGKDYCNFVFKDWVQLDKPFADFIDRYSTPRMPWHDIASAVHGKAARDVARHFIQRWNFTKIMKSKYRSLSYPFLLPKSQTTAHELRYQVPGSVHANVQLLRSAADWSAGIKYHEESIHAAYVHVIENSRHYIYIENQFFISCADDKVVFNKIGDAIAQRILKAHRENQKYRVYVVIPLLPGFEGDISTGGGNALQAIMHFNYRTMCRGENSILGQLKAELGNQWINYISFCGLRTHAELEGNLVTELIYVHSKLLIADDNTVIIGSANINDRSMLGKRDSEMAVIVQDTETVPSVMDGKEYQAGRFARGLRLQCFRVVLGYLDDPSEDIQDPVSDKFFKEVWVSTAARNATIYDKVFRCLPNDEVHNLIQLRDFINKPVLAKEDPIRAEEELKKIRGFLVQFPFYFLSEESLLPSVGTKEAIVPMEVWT

[8] = target: T2, Phospholipase D2 (Homo sapiens, UniProt O14939); test: Inhibition of GFP-fused PLD2 (unknown origin) expressed in HEK293 cells by cellular assay; format: cell-based
[9] = species on record: Homo sapiens; test: Selectivity ratio of IC50 for […] (unknown origin) to IC50 for […] (unknown origin)
[10] = target: T1, Phospholipase D1
Description: Inhibition of PLD1 (unknown origin)

[11] = target: T2, Phospholipase D2
Description: Inhibition of PLD2 (unknown origin)

T2 sequence (O14939 whole entry, the tested form may be a part): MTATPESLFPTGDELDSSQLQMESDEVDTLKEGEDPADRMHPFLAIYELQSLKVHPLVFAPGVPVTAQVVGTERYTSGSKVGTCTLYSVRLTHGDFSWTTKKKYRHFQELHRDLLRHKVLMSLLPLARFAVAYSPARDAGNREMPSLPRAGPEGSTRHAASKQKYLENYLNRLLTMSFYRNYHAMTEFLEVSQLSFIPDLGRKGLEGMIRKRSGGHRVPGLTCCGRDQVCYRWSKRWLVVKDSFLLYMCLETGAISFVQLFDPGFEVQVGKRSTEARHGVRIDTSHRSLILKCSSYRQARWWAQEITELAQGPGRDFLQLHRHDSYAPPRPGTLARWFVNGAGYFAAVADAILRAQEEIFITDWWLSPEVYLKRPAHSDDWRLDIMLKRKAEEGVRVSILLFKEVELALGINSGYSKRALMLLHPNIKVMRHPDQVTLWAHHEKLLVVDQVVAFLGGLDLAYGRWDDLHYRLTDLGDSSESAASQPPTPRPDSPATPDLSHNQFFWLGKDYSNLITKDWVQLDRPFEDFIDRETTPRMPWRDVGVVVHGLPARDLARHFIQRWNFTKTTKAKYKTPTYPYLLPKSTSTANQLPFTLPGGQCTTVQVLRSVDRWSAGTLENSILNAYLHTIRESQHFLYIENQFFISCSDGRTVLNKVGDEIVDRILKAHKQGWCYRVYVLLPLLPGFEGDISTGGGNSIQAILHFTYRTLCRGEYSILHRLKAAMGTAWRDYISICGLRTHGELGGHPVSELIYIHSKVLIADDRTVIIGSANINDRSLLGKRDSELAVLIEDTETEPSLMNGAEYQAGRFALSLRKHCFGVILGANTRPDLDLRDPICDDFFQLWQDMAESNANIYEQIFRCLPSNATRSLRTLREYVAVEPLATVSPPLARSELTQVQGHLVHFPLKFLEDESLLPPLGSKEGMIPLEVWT

Fu [1] [%] | Fu [4] [%] | Fu [5] [%] | Structure (SMILES) | IC50 [7] [µM] | IC50 [8] [µM] | also measured
24.6 | 2.7 | 10.8 | O=C(NCCN1CCC2(CC1)C(O)=NC[C@H]2c1ccc(F)cc1)c1ccc(F)cc1 |  |  | CLH [2]: 250 mL/min/kg; half-life [3]: 3.2 h; Vd [6]: 56 L/kg
13 | 0.4 | 13.6 | C[C@@H](CN1CCC2(CC1)C(=O)NC[C@H]2c1ccc(F)cc1)NC(=O)c1cc2ccccc2[nH]1 | 0.001 | 0.012 | 
16 | 1.3 | 13.8 | O=C(C#Cc1ccccc1)NCCN1CCC2(CC1)C(=O)NC[C@H]2c1ccc(F)cc1 | 1.2 | 0.07 | 
6.1 | 0.3 | 4.5 | C[C@@H](CN1CCC2(CC1)C(=O)NC[C@H]2c1ccc(F)cc1)NC(=O)c1ccc2ccccc2c1 | 0.82 | 0.026 | 
31.4 | 2.6 | 12.2 | O=C(NCCN1CCC2(CC1)C(O)=NC[C@H]2c1ccc(F)cc1)c1cnc2ccccc2c1 |  |  | 
19.8 | 0.4 | 12.4 | O=C(NCCN1CCC2(CC1)C(=O)NC[C@H]2c1ccc(F)cc1)c1cc2ccccc2[nH]1 | 0.021 | 0.0025 | CLH [2]: 340 mL/min/kg; half-life [3]: 3.63 h; Vd [6]: 80 L/kg

The remaining lines, values behind:

Structure (SMILES) | Fu [1] [%] | Fu [4] [%] | Fu [5] [%] | IC50 [7] [µM] | IC50 [8] [µM] | also measured
C[C@@H](CN1CCC2(CC1)C(=O)NC[C@@H]2c1ccc(F)cc1)NC(=O)c1cc2ccccc2[nH]1 |  |  |  | 0.016 | 0.14 | 
C[C@@H](CN1CCC2(CC1)C(=O)NC[C@H]2c1ccc(F)cc1)NC(=O)C#Cc1ccccc1 |  |  |  | 0.016 | 0.15 | 
O=C(C#Cc1ccccc1)NCCN1CCC2(CC1)C(=O)NC[C@@H]2c1ccc(F)cc1 |  |  |  | 6.4 | 0.81 | 
C[C@@H](CN1CCC2(CC1)C(=O)NC[C@@H]2c1ccc(F)cc1)NC(=O)c1ccc(F)cc1 |  |  |  | 1.7 | 2.8 | 
O=C(NCCN1CCC2(CC1)C(=O)NCN2Cc1cccnc1)c1ccc2ccccc2c1 |  |  |  |  |  | Ratio IC50 [9]: > 80; IC50 [10]: > 30 µM; IC50 [11]: 0.36 µM
C[C@@H](CN1CCC2(CC1)C(=O)NC[C@H]2c1ccc(F)cc1)NC(=O)c1ccc(F)cc1 |  |  |  | 0.25 | 0.21 | 
O=C(NCCN1CCC2(CC1)C(=O)NC[C@@H]2c1ccc(F)cc1)c1cc2ccccc2[nH]1 |  |  |  | 0.32 | 0.043 | 
C[C@@H](CN1CCC2(CC1)C(=O)NC[C@@H]2c1ccc(F)cc1)NC(=O)C#Cc1ccccc1 |  |  |  | 0.32 | 4 | 
